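Dose response: 5 concentrations. Exposure: 48 h. Format: 96-well plates. Endpoint: linear interpolation; highest concentration if not reached. Definition used: TGI = concentration required for complete inhibition of growth.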

This passage reports TGI results from PubChem BioAssay (NCI).

Among the test systems are SF-539 CNS; MDA-MB-231 breast; SNB-75 CNS; SK-OV-3 ovarian; NCI-H23 lung; CAKI-1 renal; SF-268 CNS; MCF7 breast; DU-145 prostate; HCT-116 colon.
Assay in all cases: NCI tumour cell line growth inhibition, 48 h

Take `Oc1c2cccc1Cc1cccc3c1OCCOCCOCCOCCOc1c(cccc1Cc1cccc(c1O)C3)C2`: the TGI with SF-539 CNS is over 100 µM; in the experiment with MDA-MB-231 breast, over 100 µM; in the experiment with SNB-75 CNS it was 87.3 µM; with SK-OV-3 ovarian, over 100 µM; with NCI-H23 lung it was over 100 µM; in the experiment with CAKI-1 renal, over 100 µM. The TGI in the experiment with SF-268 CNS, in the experiment with MCF7 breast, in the experiment with DU-145 prostate and in the experiment with HCT-116 colon was over 100 µM throughout.
Regarding `[N-]=[N+]=NC1(c2ccccc2)C(=O)Nc2ccccc2C1=O` (stereo not given), the TGI in the experiment on SF-539 CNS, in the experiment on MDA-MB-231 breast, in the experiment on SNB-75 CNS, in the experiment on SK-OV-3 ovarian, with NCI-H23 lung and in the experiment with CAKI-1 renal was over 100 µM throughout. Also, the TGI in the experiment on SF-268 CNS, in the experiment with MCF7 breast, in the experiment with DU-145 prostate and in the experiment on HCT-116 colon was over 100 µM each time.
For the compound `Cc1cs/c(=N\C(P(=O)(O)O)P(=O)(O)O)n1C`, the TGI in the experiment on SF-539 CNS, in the experiment with MDA-MB-231 breast, in the experiment on SNB-75 CNS, in the experiment on SK-OV-3 ovarian, with NCI-H23 lung and in the experiment with CAKI-1 renal was over 100 µM throughout. The TGI in the experiment with SF-268 CNS, in the experiment with MCF7 breast, in the experiment with DU-145 prostate and in the experiment on HCT-116 colon was over 100 µM throughout.
`N#Cc1c(=O)c2cccnc2n2c1[nH]c1ccccc12`: the TGI in the experiment on SF-539 CNS, with MDA-MB-231 breast, with SNB-75 CNS, in the experiment on SK-OV-3 ovarian, in the experiment on NCI-H23 lung and with CAKI-1 renal was over 100 µM throughout. The TGI in the experiment on SF-268 CNS, in the experiment with MCF7 breast, in the experiment on DU-145 prostate and in the experiment with HCT-116 colon was over 100 µM throughout.
Take `O=[N+]([O-])c1ccc2nc3ccc([N+](=O)[O-])cn3c2c1`: the TGI with SF-539 CNS was over 100 µM; in the experiment on MDA-MB-231 breast it was over 100 µM; with SNB-75 CNS, over 100 µM; with SK-OV-3 ovarian, over 100 µM; with NCI-H23 lung it was over 100 µM; with CAKI-1 renal, 89.2 µM. The TGI in the experiment on SF-268 CNS, with MCF7 breast, in the experiment with DU-145 prostate and in the experiment on HCT-116 colon was over 100 µM each time.
Turning to `COc1ccc(/C=N/Nc2[nH]c(=S)nc3[nH]ncc23)cc1`, the TGI in the experiment with SF-539 CNS, in the experiment on MDA-MB-231 breast, in the experiment on SNB-75 CNS, in the experiment on SK-OV-3 ovarian, in the experiment on NCI-H23 lung and in the experiment on CAKI-1 renal was over 100 µM throughout. Besides, the TGI in the experiment with SF-268 CNS, with MCF7 breast, with DU-145 prostate and in the experiment on HCT-116 colon was over 100 µM each time.
For the compound `CC1CN=C(c2cccc(OCc3ccc(COc4cccc(C5=NCC(C)N5)c4)cc3)c2)N1` (stereo not given), the TGI in the experiment on SF-539 CNS is 98.7 µM; in the experiment with MDA-MB-231 breast, over 100 µM; with SNB-75 CNS, 91.4 µM; in the experiment on SK-OV-3 ovarian, over 100 µM; in the experiment on NCI-H23 lung it was over 100 µM; in the experiment with CAKI-1 renal, over 100 µM. The TGI in the experiment with SF-268 CNS, with MCF7 breast, in the experiment on DU-145 prostate and with HCT-116 colon was over 100 µM throughout.
As for `O=C1c2ccccc2S(=O)(=O)c2ccccc21`, the TGI in the experiment with SF-539 CNS, in the experiment with MDA-MB-231 breast, in the experiment on SNB-75 CNS, in the experiment with SK-OV-3 ovarian, with NCI-H23 lung and in the experiment on CAKI-1 renal was over 100 µM in each case. Besides, the TGI in the experiment with SF-268 CNS, in the experiment on MCF7 breast, in the experiment on DU-145 prostate and with HCT-116 colon was over 100 µM in each case.
As for `CCCCn1cc(C(=O)O)c(=O)c2c3sccc3ccc21`, the TGI in the experiment on SF-539 CNS, in the experiment on MDA-MB-231 breast, with SNB-75 CNS, with SK-OV-3 ovarian, with NCI-H23 lung and in the experiment with CAKI-1 renal was over 100 µM throughout. In addition, the TGI with SF-268 CNS, in the experiment on MCF7 breast, in the experiment with DU-145 prostate and in the experiment on HCT-116 colon was over 100 µM throughout.
